From patent US11524962B2, “Substituted pyrrolo[2,3-d]pyrimidines as inhibitors of protein arginine methyl transferase 5 (PRMT5)” (PRELUDE THERAPEUTICS, INCORPORATED, priority 2017, dated 2022)

Assays:
PRMT5/MEP50 complex [1] = target: T1, PRMT5/MEP50 complex (Homo sapiens (Human), UniProt O14744); assay: Flash plate assay; assay type: biochemical; conditions: read-out: Flash Plate IC50
Method: Flash plate assay. Compounds were solubilized, and 3-fold diluted in 100% DMSO. […] Standard reactions were performed in a total volume of 30 μl in assay buffer, with 300 nM histone H4 based AcH4-23 (Anaspec: AS-65002) as substrate. To this was added the PRMT5/MEP50 complex diluted to provide a final assay concentration of 2.5 nM and the compounds were allowed to preincubate for 20 minutes at 37° C. The reaction was initiated by adding S-[3H-methyl]-adenosyl-L-methionine (PerkinElmer: NET155001MC) to final concentration of 1 μM. Following a 30 minutes incubation at 37° C., the reaction was stopped by adding 25 μL of 8M Guanidine HCl. Prepare streptavidin YSI SPA beads (Perkinelmer: RPNQ0012) at 0.3 mg/mL in assay buffer. To each reaction, add 150 μL of SPA beads suspension, and incubated while shaking at room temperature for 30 minutes. The plate was centrifuged at 100×g for 30 second before reading in a scintillation counter. IC50 values were determined by fitting the data to the standard 4 parameters with Hill Slope using GraphPad Prism software. This procedure produced the Flash Plate data in Table 7.

PRMT5/MEP50 complex [2] = target: T1, PRMT5/MEP50 complex; assay: HotSpot Assay; assay type: biochemical
Method: HotSpot Assay. Compounds were solubilized and 3-fold diluted in 100% DMSO. […] Standard reactions were performed in a total volume of 50 μl in assay buffer, with histone H2A (5 μM final) as substrate. To this was added the PRMT5/MEP50 complex diluted to provide a final assay concentration of 5 nM and the compounds were allowed to preincubate for 15 to 20 minutes at room temperature. The reaction was initiated by adding S-[3H-methyl]-adenosyl-L-methionine (PerkinElmer) to final concentration of 1 μM. Following a 60 minutes incubation at 30° C., the reaction was stopped by adding 100 μL of 20% TCA. Each reaction was spotted onto filter plate (MultiScreen FB Filter Plate, Millipore), and washed 5 times with PBS buffer, Scintillation fluid was added to the filter plate and read in a scintillation counter. IC50 values were determined by fitting the data to the standard 4 parameters with Hill Slope using GraphPad Prism software. This procedure generated the HotSpot data in Table 7.

T1 sequence (O14744 whole entry): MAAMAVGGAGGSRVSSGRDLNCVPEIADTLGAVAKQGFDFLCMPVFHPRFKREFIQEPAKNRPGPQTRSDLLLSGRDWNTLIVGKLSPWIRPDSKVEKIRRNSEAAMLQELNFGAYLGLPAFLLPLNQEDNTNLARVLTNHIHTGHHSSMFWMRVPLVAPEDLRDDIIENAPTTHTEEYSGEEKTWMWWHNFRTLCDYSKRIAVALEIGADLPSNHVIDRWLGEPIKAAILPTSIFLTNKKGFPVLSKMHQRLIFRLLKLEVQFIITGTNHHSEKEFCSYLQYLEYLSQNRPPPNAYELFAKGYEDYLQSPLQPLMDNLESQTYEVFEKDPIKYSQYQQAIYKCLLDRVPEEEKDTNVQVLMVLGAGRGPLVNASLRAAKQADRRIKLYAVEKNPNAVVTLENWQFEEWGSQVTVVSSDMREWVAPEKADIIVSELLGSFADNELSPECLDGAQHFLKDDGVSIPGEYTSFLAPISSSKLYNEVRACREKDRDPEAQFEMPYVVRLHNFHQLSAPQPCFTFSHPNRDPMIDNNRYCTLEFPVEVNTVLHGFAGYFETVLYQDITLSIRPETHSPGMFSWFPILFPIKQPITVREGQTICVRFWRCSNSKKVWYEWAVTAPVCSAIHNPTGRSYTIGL
T1 sequence (Q9BQA1 whole entry partner): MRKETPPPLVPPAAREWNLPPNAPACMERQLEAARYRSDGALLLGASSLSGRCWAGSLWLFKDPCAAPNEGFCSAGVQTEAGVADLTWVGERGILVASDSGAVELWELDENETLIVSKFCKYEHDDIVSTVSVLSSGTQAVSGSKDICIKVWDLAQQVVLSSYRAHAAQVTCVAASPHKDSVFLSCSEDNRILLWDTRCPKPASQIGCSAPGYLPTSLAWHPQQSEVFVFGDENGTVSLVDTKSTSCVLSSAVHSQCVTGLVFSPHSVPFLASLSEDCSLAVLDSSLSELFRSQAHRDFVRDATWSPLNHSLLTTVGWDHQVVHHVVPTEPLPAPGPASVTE

Row | IC50 (PRMT5/MEP50 complex [1]) | IC50 (PRMT5/MEP50 complex [2]) | Compound
1 | 274 nM | – | Cc1ncnc2c1ccn2[C@@H]1O[C@H]([C@@H](O)c2ccc3c(c2)CC3)[C@@H](O)[C@H]1O [Example 47, (2R,3S,4R,5R)-2-((S)-bicyclo[4.2.0]octa-1,3,5-trien-3-yl(hydroxy)methyl)-5-(4-methyl-7H-pyrrolo[2,3-d]pyrimidin-7-yl)tetrahydrofuran-3,4-diol]
2 | 2520 nM | – | CCOCc1ncnc2c1ccn2[C@@H]1O[C@H]([C@H](O)c2ccc3c(c2)CC3)[C@@H](O)[C@H]1O [Example 50, (2R,3S,4R,5R)-2-((R)-bicyclo[4.2.0]octa-1(6),2,4-trien-3-yl(hydroxy)methyl)-5-(4-(ethoxymethyl)-7H-pyrrolo[2,3-d]pyrimidin-7-yl)tetrahydrofuran-3,4-diol]
3 | 200 nM | – | O[C@@H]1[C@H](O)[C@@H]([C@H](O)c2ccc3c(c2)CC3)O[C@H]1n1ccc2c(CCOCc3ccccc3)ncnc21 [Example 55, (2R,3R,4S,5R)-2-(4-(2-(benzyloxy)ethyl)-7H-pyrrolo[2,3-d]pyrimidin-7-yl)-5-((R)-bicyclo[4.2.0]octa-1(6),2,4-trien-3-yl(hydroxy)methyl)tetrahydrofuran-3,4-diol]
4 | 392 nM | – | CCCCc1ncnc2c1ccn2[C@@H]1O[C@H]([C@H](O)c2ccc3c(c2)CC3)[C@@H](O)[C@H]1O [Example 42, (2R,3S,4R,5R)-2-((R)-bicyclo[4.2.0]octa-1,3,5-trien-3-yl(hydroxy)methyl)-5-(4-butyl-7H-pyrrolo[2,3-d]pyrimidin-7-yl)tetrahydrofuran-3,4-diol]
5 | 51 nM | – | O[C@@H]1[C@H](O)[C@@H]([C@H](O)c2ccc3c(c2)CC3)O[C@H]1n1ccc2c(CCl)ncnc21 [Example 51, (2R,3S,4R,5R)-2-((R)-bicyclo[4.2.0]octa-1(6),2,4-trien-3-yl(hydroxy)methyl)-5-(4-(chloromethyl)-7H-pyrrolo[2,3-d]pyrimidin-7-yl)tetrahydrofuran-3,4-diol]
6 | 2060 nM | – | C=Cc1ncnc2c1ccn2[C@@H]1O[C@H]([C@H](O)c2ccc3c(c2)CC3)[C@@H](O)[C@H]1O [Example 46, (2R,3S,4R,5R)-2-((R)-bicyclo[4.2.0]octa-1(6),2,4-trien-3-yl(hydroxy)methyl)-5-(4-vinyl-7H-pyrrolo[2,3-d]pyrimidin-7-yl)tetrahydrofuran-3,4-diol]
7 | 181 nM | – | OCc1ncnc2c1ccn2[C@@H]1O[C@H]([C@H](O)c2ccc3c(c2)CC3)[C@@H](O)[C@H]1O [Example 43, (2R,3S,4R,5R)-2-((R)-bicyclo[4.2.0]octa-1,3,5-trien-3-yl(hydroxy)methyl)-5-(4-(hydroxymethyl)-7H-pyrrolo[2,3-d]pyrimidin-7-yl)tetrahydrofuran-3,4-diol]

Second part, the compound before the results:

Row | Compound | IC50 (PRMT5/MEP50 complex [1]) | IC50 (PRMT5/MEP50 complex [2])
8 | C[C@](O)(c1ccc2c(c1)CC2)[C@H]1O[C@@H](n2ccc3c(N)ncnc32)[C@H](O)[C@@H]1O [Example 39, (2R,3R,4S,5S)-2-(4-amino-7H-pyrrolo [2,3-d]pyrimidin-7-yl)-5-((S)-1-(bicyclo[4.2.0]octa-1(6),2,4-trien-3-yl)-1-hydroxyethyl)tetrahydrofuran-3,4-diol] | 1240 nM | –
9 | Nc1ncnc2c1c(I)cn2[C@@H]1O[C@H]([C@H](O)c2ccc3c(c2)CC3)[C@@H](O)[C@H]1O [Example 37, (2R,3R,4S,5R)-2-(4-amino-5-iodo-7H-pyrrolo[2,3-d]pyrimidin-7-yl)-5-((R)-bicyclo[4.2.0]octa-1(6),2,4-trien-3-yl(hydroxy)methyl)tetrahydrofuran-3,4-diol] | 31 nM | 12 nM
10 | CCO/N=c1\[nH]cnc2c1ccn2[C@@H]1O[C@H]([C@H](O)c2ccc3c(c2)CC3)[C@@H](O)[C@H]1O [Example 21, 7-((2R,3R,4S,5R)-5-((R)-bicyclo[4.2.0]octa-1(6),2,4-trien-3-yl(hydroxy)methyl)-3,4-dihydroxytetrahydrofuran-2-yl)-3,7-dihydro-4H-pyrrolo[2,3-d]pyrimidin-4-one O-ethyl oxime] | 148 nM | 153 nM
11 | C=C(C)c1ncnc2c1ccn2[C@@H]1O[C@H]([C@H](O)c2ccc3c(c2)CC3)[C@@H](O)[C@H]1O [Example 40, (2R,3S,4R,5R)-2-((R)-bicyclo[4.2.0]octa-1(6),2,4-trien-3-yl(hydroxy)methyl)-5-(4-(prop-1-en-2-yl)-7H-pyrrolo[2,3-d]pyrimidin-7-yl)tetrahydrofuran-3,4-diol] | 1030 nM | –
12 | CN(C)C(=O)Nc1ncnc2c1ccn2[C@@H]1O[C@H]([C@H](O)c2ccc3c(c2)CC3)[C@@H](O)[C@H]1O [Example 23, 3-(7-((2R,3R,4S,5R)-5-((R)-bicyclo[4.2.0]octa-1(6),2,4-trien-3-yl(hydroxy)methyl)-3,4-dihydroxytetrahydrofuran-2-yl)-7H-pyrrolo[2,3-d]pyrimidin-4-yl)-1,1-dimethylurea] | 697 nM | –
13 | CCO/N=c1\[nH]cnc2c1ccn2[C@@H]1O[C@H]([C@](C)(O)c2ccc3c(c2)CC3)[C@@H](O)[C@H]1O [Example 22, 7-((2R,3R,4S,5S)-5-((R)-1-(bicyclo[4.2.0]octa-1(6),2,4-trien-3-yl)-1-hydroxyethyl)-3,4-dihydroxytetrahydrofuran-2-yl)-3,7-dihydro-4H-pyrrolo[2,3-d]pyrimidin-4-one O-ethyl oxime] | 189 nM | 57 nM
14 | CC(C)c1ncnc2c1ccn2[C@@H]1O[C@H]([C@H](O)c2ccc3c(c2)CC3)[C@@H](O)[C@H]1O [Example 41, (2R,3S,4R,5R)-2-((R)-bicyclo[4.2.0]octa-1(6),2,4-trien-3-yl(hydroxy)methyl)-5-(4-isopropyl-7H-pyrrolo[2,3-d]pyrimidin-7-yl)tetrahydrofuran-3,4-diol] | 230 nM | –
15 | CO/N=c1\[nH]cnc2c1ccn2[C@@H]1O[C@H]([C@H](O)c2ccc3c(c2)CC3)[C@@H](O)[C@H]1O [Example 20, 7-((2R,3R,4S,5R)-5-((R)-bicyclo[4.2.0]octa-1(6),2,4-trien-3-yl(hydroxy)methyl)-3,4-dihydroxytetrahydrofuran-2-yl)-3,7-dihydro-4H-pyrrolo[2,3-d]pyrimidin-4-one O-methyl oxime] | 121 nM | 32 nM
16 | Nc1ncnc2c1c(C(F)(F)F)cn2[C@@H]1O[C@H]([C@H](O)c2ccc3c(c2)CC3)[C@@H](O)[C@H]1O [Example 38, (2R,3R,4S,5R)-2-(4-amino-5-(trifluoromethyl)-7H-pyrrolo[2,3-d]pyrimidin-7-yl)-5-((R)-bicyclo[4.2.0]octa-1(6),2,4-trien-3-yl(hydroxy)methyl)tetrahydrofuran-3,4-diol] | 221 nM | 368 nM
17 | COc1ncnc2c1ccn2[C@@H]1O[C@H]([C@H](O)c2ccc3c(c2)CC3)[C@@H](O)[C@H]1O [Example 35, (2R,3S,4R,5R)-2-[(R)-4-bicyclo[4.2.0]octa-1,3,5-trienyl(hydroxy)methyl]-5-(4-methoxypyrrolo[2,3-d]pyrimidin-7-yl)tetrahydrofuran-3,4-diol] | 287 nM | 46 nM
